Source: US20240199702A1, “CELL-PERMEABLE CYCLIC PEPTIDES AND USES THEREOF” (Unnatural Products Inc., priority 2021, published 2024)
Where a SMILES comes first, the peptide text is derived from it. [ ]: non-standard residue; d: D form. The star is where a group is joined. Ala(4-thiazolyl) = N[C@@H](Cc1cscn1)C(=O)O; NMeAla(cPent) = CN[C@@H](CC1CCCC1)C(=O)O; Phe(4-Cl) = N[C@@H](Cc1ccc(Cl)cc1)C(=O)O; Phe(4-F) = N[C@@H](Cc1ccc(F)cc1)C(=O)O; Ala(cPent) = N[C@@H](CC1CCCC1)C(=O)O; Cyclohexanecarbonyl = O=C(C1CCCCC1)*; NMeCba = CN[C@@H](CC1CCC1)C(=O)O; NMeF = CN[C@@H](Cc1ccccc1)C(=O)O; NMeI = CC[C@H](C)[C@H](NC)C(=O)O; NMeT = CN[C@H](C(=O)O)[C@@H](C)O; Cba = N[C@@H](CC1CCC1)C(=O)O; Nicotinoyl = O=C(c1cccnc1)*; Methoxyacetyl = COCC(=O)*; hSer = N[C@@H](CCO)C(=O)O; NMeA = CN[C@@H](C)C(=O)O; dNMeA = CN[C@H](C)C(=O)O; Bz = O=C(c1ccccc1)*; Nme = COCCNCC(=O)O; X1 = O=C(C(F)F)*; Sar = CNCC(=O)O

What was measured:
Human MDM2 (HDM2) 1-116 = target: T1, Human MDM2 (HDM2) 1-116 (Homo sapiens, UniProt Q00987); assay: Fluorescence Polarization Assay 1 (MDM2/p53 peptide); type: binding; details: FAM-labeled p53 peptide, 60 minutes
T1 construct: Human MDM2 (HDM2) 1-116
Protocol: Fluorescence Polarization Assay 1
(§1) Human MDM2 (HDM2) 1-116 (20 μL) and FAM-labeled GGTSFAEYWNLLSP-NH2, 10 nM and 5 nM respectively in 10 mM Tris, 50 mM NaCl, 0.01% Tween20, and 1 mM DTT at pH 7.4 were dispensed into an opaque, black, 384 well plate. Compounds dissolved in DMSO were pin transferred (˜100-200 nL) to the 384 well plate containing the MDM2/p53 solution. After incubation for 60 minutes, the fluorescence polarization was read on a Molecular Devices SpectraMax plate reader equipped with a Fluorescein FP cartridge. In addition to probe alone (positive control) and probe/MDM2 (negative control), a titration of linear p53(18-26) was included on every plate as an additional control. IC50 values were fit using either Prism or Collaborative Drug Discovery.

Human MDM4 (HDM4) 1-114 = target: T2, Human MDM4 (HDM4) 1-114 (Homo sapiens, UniProt O15151); assay: Fluorescence Polarization Assay 2 (MDM4/p53 peptide); type: binding; details: FAM-labeled p53 peptide, 60 minutes
T2 construct: Human MDM4 (HDM4) 1-114
T2 sequence (O15151 1-114): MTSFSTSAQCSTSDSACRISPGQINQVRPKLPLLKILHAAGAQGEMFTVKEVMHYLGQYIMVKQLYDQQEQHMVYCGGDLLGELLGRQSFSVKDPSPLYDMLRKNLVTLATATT
Protocol: Fluorescence Polarization Assay 2
as §1, with “MDM4 (HDM4) 1-114” for “MDM2 (HDM2) 1-116”, “GGTSFAEYWNLLSP —NH2, 20” for “GGTSFAEYWNLLSP-NH2, 10”, “(−100-200” for “(˜100-200”, “MDM4/p53” for “MDM2/p53”, “probe/MDM4” for “probe/MDM2”

T1 sequence (Q00987 1-116): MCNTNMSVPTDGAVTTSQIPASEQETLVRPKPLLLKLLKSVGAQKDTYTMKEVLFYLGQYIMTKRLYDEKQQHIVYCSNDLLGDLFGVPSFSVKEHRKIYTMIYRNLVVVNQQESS

Row | Compound | IC50 (Human MDM2 (HDM2) 1-116) [nM] | IC50 (Human MDM4 (HDM4) 1-114) [nM]
1 | COCC[C@@H]1NC(=O)[C@H]2CCCN2C(=O)[C@H](Cc2ccccc2)N(C)C(=O)[C@H](Cc2ccc(Cl)cc2)NC(=O)[C@H]([C@@H](C)OC)NC(=O)[C@H](Cc2ccc(F)cc2)NC(=O)CN(CCOC)C(=O)[C@@H](C)N(C)C(=O)[C@H](Cc2cscn2)NC(=O)[C@H](C)N(C)C1=O [compound 12] (cyclo([Ala(4-thiazolyl)][dNMeA][Nme][Phe(4-F)]T(Me)[Phe(4-Cl)][NMeF][dP][hSer](Me)[NMeA])) | < 25 | < 25
2 | COCC[C@@H]1NC(=O)[C@H]2CCCN2C(=O)[C@H](Cc2ccccc2)N(C)C(=O)[C@H](Cc2ccc(Cl)cc2)NC(=O)[C@H](C(C)C)NC(=O)[C@H](Cc2ccc(F)cc2)NC(=O)CN(C)C(=O)[C@@H](C)N(C)C(=O)[C@H](Cc2cscn2)NC(=O)[C@H](C)N(C)C1=O [compound 13] (cyclo([Ala(4-thiazolyl)][dNMeA][Sar][Phe(4-F)]V[Phe(4-Cl)][NMeF][dP][hSer](Me)[NMeA])) | < 25 | 25 to 50
3 | COCC[C@@H]1NC(=O)[C@H]2CCCN2C(=O)[C@H](Cc2ccccc2)N(C)C(=O)[C@H](Cc2ccc(Cl)cc2)NC(=O)[C@H](CC2CCCC2)N(C)C(=O)[C@H](Cc2ccc(F)cc2)NC(=O)CN(CCOC)C(=O)[C@@H](C)N(C)C(=O)[C@H](Cc2cscn2)NC(=O)[C@H](C)N(C)C1=O [compound 10] (cyclo([Ala(4-thiazolyl)][dNMeA][Nme][Phe(4-F)][NMeAla(cPent)][Phe(4-Cl)][NMeF][dP][hSer](Me)[NMeA])) | < 25 | ≥ 100
4 | COCC[C@@H]1NC(=O)[C@H]2CCCN2C(=O)[C@H](Cc2ccccc2)N(C)C(=O)[C@H](Cc2ccc(Cl)cc2)NC(=O)[C@H](CC2CCC2)N(C)C(=O)[C@H](Cc2ccc(F)cc2)NC(=O)CN(CCOC)C(=O)[C@@H](C)N(C)C(=O)[C@H](Cc2cscn2)NC(=O)[C@H](C)N(C)C1=O [compound 9] (cyclo([Ala(4-thiazolyl)][dNMeA][Nme][Phe(4-F)][NMeCba][Phe(4-Cl)][NMeF][dP][hSer](Me)[NMeA])) | < 25 | 50 to 100
5 | CC[C@H](C)[C@H]1C(=O)N[C@@H](Cc2ccc(Cl)cc2)C(=O)N(C)[C@@H](Cc2ccccc2)C(=O)N2CCC[C@@H]2C(=O)N[C@@H](CCOC)C(=O)N(C)[C@@H](C)C(=O)N[C@@H](Cc2cscn2)C(=O)N(C)[C@H](C)C(=O)N(CCOC)CC(=O)N[C@@H](Cc2ccc(F)cc2)C(=O)N1C [compound 17] (cyclo([Ala(4-thiazolyl)][dNMeA][Nme][Phe(4-F)][NMeI][Phe(4-Cl)][NMeF][dP][hSer](Me)[NMeA])) | < 25 | ≥ 100
6 | COCC[C@@H]1NC(=O)[C@H]2CCCN2C(=O)[C@H](Cc2ccccc2)N(C)C(=O)[C@H](Cc2ccc(Cl)cc2)NC(=O)[C@H]([C@@H](C)O)NC(=O)[C@H](Cc2ccc(F)cc2)NC(=O)CN(CCOC)C(=O)[C@@H](C)N(C)C(=O)[C@H](Cc2cscn2)NC(=O)[C@H](C)N(C)C1=O [compound 18] (cyclo([hSer](Me)[NMeA][Ala(4-thiazolyl)][dNMeA][Nme][Phe(4-F)]T[Phe(4-Cl)][NMeF][dP])) | < 25 | 25 to 50
7 | CC[C@H](C)[C@@H]1NC(=O)[C@H](Cc2ccc(F)cc2)NC(=O)CN(CCOC)C(=O)[C@@H](C)N(C)C(=O)[C@H](Cc2cscn2)NC(=O)[C@H](C)N(C)C(=O)[C@H](CCOC)NC(=O)[C@H]2CCCN2C(=O)[C@H](Cc2ccccc2)N(C)C(=O)[C@H](Cc2ccc(Cl)cc2)NC1=O [compound 16] (cyclo([Ala(4-thiazolyl)][dNMeA][Nme][Phe(4-F)]I[Phe(4-Cl)][NMeF][dP][hSer](Me)[NMeA])) | < 25 | 25 to 50
8 | COCC[C@@H]1NC(=O)[C@H]2CCCN2C(=O)[C@H](Cc2ccccc2)N(C)C(=O)[C@H](Cc2ccc(Cl)cc2)NC(=O)[C@H]([C@@H](C)OC(=O)c2ccccc2)NC(=O)[C@H](Cc2ccc(F)cc2)NC(=O)CN(CCOC)C(=O)[C@@H](C)N(C)C(=O)[C@H](Cc2cscn2)NC(=O)[C@H](C)N(C)C1=O [compound 2] (cyclo([Ala(4-thiazolyl)][dNMeA][Nme][Phe(4-F)]T(Bz)[Phe(4-Cl)][NMeF][dP][hSer](Me)[NMeA])) | < 25 | < 25
9 | COCC[C@@H]1NC(=O)[C@H]2CCCN2C(=O)[C@H](Cc2ccccc2)N(C)C(=O)[C@H](Cc2ccc(Cl)cc2)NC(=O)[C@H]([C@@H](C)O)N(C)C(=O)[C@H](Cc2ccc(F)cc2)NC(=O)CN(CCOC)C(=O)[C@@H](C)N(C)C(=O)[C@H](Cc2cscn2)NC(=O)[C@H](C)N(C)C1=O [compound 19] (cyclo([Ala(4-thiazolyl)][dNMeA][Nme][Phe(4-F)][NMeT][Phe(4-Cl)][NMeF][dP][hSer](Me)[NMeA])) | < 25 | 50 to 100
10 | COCC[C@@H]1NC(=O)[C@H]2CCCN2C(=O)[C@H](Cc2ccccc2)N(C)C(=O)[C@H](Cc2ccc(Cl)cc2)NC(=O)[C@H](CC2CCC2)NC(=O)[C@H](Cc2ccc(F)cc2)NC(=O)CN(CCOC)C(=O)[C@@H](C)N(C)C(=O)[C@H](C)N(C)C1=O [compound 14] (cyclo([Cba][Phe(4-Cl)][NMeF][dP][hSer](Me)[NMeA][dNMeA][Nme][Phe(4-F)])) | < 25 | 25 to 50
11 | COCC[C@@H]1NC(=O)[C@H]2CCCN2C(=O)[C@H](Cc2ccccc2)N(C)C(=O)[C@H](Cc2ccc(Cl)cc2)NC(=O)[C@H]([C@@H](C)OC(=O)C(F)F)NC(=O)[C@H](Cc2ccc(F)cc2)NC(=O)CN(CCOC)C(=O)[C@@H](C)N(C)C(=O)[C@H](Cc2cscn2)NC(=O)[C@H](C)N(C)C1=O [compound 7] (cyclo([Ala(4-thiazolyl)][dNMeA][Nme][Phe(4-F)]T(X1)[Phe(4-Cl)][NMeF][dP][hSer](Me)[NMeA])) | 25 to 50 | 50 to 100
12 | COCC[C@@H]1NC(=O)[C@H]2CCCN2C(=O)[C@H](Cc2ccccc2)N(C)C(=O)[C@H](Cc2ccc(Cl)cc2)NC(=O)[C@H]([C@@H](C)OC(=O)COC)NC(=O)[C@H](Cc2ccc(F)cc2)NC(=O)CN(CCOC)C(=O)[C@@H](C)N(C)C(=O)[C@H](Cc2cscn2)NC(=O)[C@H](C)N(C)C1=O [compound 4] (cyclo([Ala(4-thiazolyl)][dNMeA][Nme][Phe(4-F)]T(Methoxyacetyl)[Phe(4-Cl)][NMeF][dP][hSer](Me)[NMeA])) | < 25 | 25 to 50
13 | COCC[C@@H]1NC(=O)[C@H]2CCCN2C(=O)[C@H](Cc2ccccc2)N(C)C(=O)[C@H](Cc2ccc(Cl)cc2)NC(=O)[C@H]([C@@H](C)OC(C)=O)NC(=O)[C@H](Cc2ccc(F)cc2)NC(=O)CN(CCOC)C(=O)[C@@H](C)N(C)C(=O)[C@H](Cc2cscn2)NC(=O)[C@H](C)N(C)C1=O [compound 1] (cyclo([Ala(4-thiazolyl)][dNMeA][Nme][Phe(4-F)]T(Ac)[Phe(4-Cl)][NMeF][dP][hSer](Me)[NMeA])) | < 25 | 25 to 50
14 | COCC[C@@H]1NC(=O)[C@H]2CCCN2C(=O)[C@H](Cc2ccccc2)N(C)C(=O)[C@H](Cc2ccc(Cl)cc2)NC(=O)[C@H]([C@@H](C)OC(=O)C2CCCCC2)NC(=O)[C@H](Cc2ccc(F)cc2)NC(=O)CN(CCOC)C(=O)[C@@H](C)N(C)C(=O)[C@H](Cc2cscn2)NC(=O)[C@H](C)N(C)C1=O [compound 8] (cyclo([Ala(4-thiazolyl)][dNMeA][Nme][Phe(4-F)]T(Cyclohexanecarbonyl)[Phe(4-Cl)][NMeF][dP][hSer](Me)[NMeA])) | ≥ 100 | ≥ 100
15 | COCC[C@@H]1NC(=O)[C@H]2CCCN2C(=O)[C@H](Cc2ccccc2)N(C)C(=O)[C@H](Cc2ccc(Cl)cc2)NC(=O)[C@H](CC2CCCC2)NC(=O)[C@H](Cc2ccc(F)cc2)NC(=O)CN(CCOC)C(=O)[C@@H](C)N(C)C(=O)[C@H](C)N(C)C1=O [compound 15] (cyclo([Ala(cPent)][Phe(4-Cl)][NMeF][dP][hSer](Me)[NMeA][dNMeA][Nme][Phe(4-F)])) | < 25 | 50 to 100
16 | COCC[C@@H]1NC(=O)[C@H]2CCCN2C(=O)[C@H](Cc2ccccc2)N(C)C(=O)[C@H](Cc2ccc(Cl)cc2)NC(=O)[C@H]([C@@H](C)OC(=O)c2cccnc2)NC(=O)[C@H](Cc2ccc(F)cc2)NC(=O)CN(CCOC)C(=O)[C@@H](C)N(C)C(=O)[C@H](Cc2cscn2)NC(=O)[C@H](C)N(C)C1=O [compound 3] (cyclo([Ala(4-thiazolyl)][dNMeA][Nme][Phe(4-F)]T(Nicotinoyl)[Phe(4-Cl)][NMeF][dP][hSer](Me)[NMeA])) | < 25 | 50 to 100
17 | COCC[C@@H]1NC(=O)[C@H]2CCCN2C(=O)[C@H](Cc2ccccc2)N(C)C(=O)[C@H](Cc2ccc(Cl)cc2)NC(=O)[C@H]([C@@H](C)OC)N(C)C(=O)[C@H](Cc2ccc(F)cc2)NC(=O)CN(CCOC)C(=O)[C@@H](C)N(C)C(=O)[C@H](Cc2cscn2)NC(=O)[C@H](C)N(C)C1=O [compound 20] (cyclo([Ala(4-thiazolyl)][dNMeA][Nme][Phe(4-F)][NMeT](Me)[Phe(4-Cl)][NMeF][dP][hSer](Me)[NMeA])) | < 25 | 50 to 100
